Measurements published in patent US20100086483A1, “METHOD OF MULTIDETECTOR COMPUTED TOMAGRAPHY” (Gilead Palo Alto, Inc., priority 2008, published 2010).

Assays:
conscious dogs = assay: Effects of caffeine on regadenoson-induced coronary vasodilation and changes in hemodynamics in conscious dogs (Part II); assay type: in vivo, dog; conditions: for duration of 2-fold increase in CBF / maximum CBF: time control group, 4 dogs
Procedure: Sixteen chronically instrumented male mongrel dogs weighing from 22-30 kg were used in the study. The animal protocol was approved by the Institutional Animal Care and Use Committee of New York Medical College and conforms to the Guide for the Care and Use of Laboratory Animal by the United States National Institutes of Health.
Dogs were sedated with acepromazine (0.3 mg/kg, IM) and anesthetized with pentobarbital sodium (25 mg/kg, IV). After intubation, dogs were artificially ventilated with room air. A thoracotomy was made in the fifth intercostal space using sterile techniques. A Tygon catheter (Cardiovascular Instruments, Wakefield, Mass.) was inserted into the descending thoracic aorta and another one was inserted into the left atrium. In 9 dogs, an ultrasound flow transducer (Transonic Systems, Ithaca, N.Y.) was placed around the left circumflex coronary artery. A solid-state pressure gauge (P6.5, Konisberg Instruments, Pasadena, Calif.) was placed into the left ventricle through the apex. The chest was closed in layers. The catheters and wires were tunneled subcutaneously and externalized through the skin at the back of the dog's neck. Dogs were allowed to recover from the surgery before experiments were performed, and were trained to lie on a table.
Phasic arterial pressure was measured by connecting the aortic catheter to a strain gauge transducer (P23 ID, LDS Test and Measurement, Valley View, Ohio). Left ventricular pressures were measured by the solid pressure gauge. CBF (mL/min) was measured from an ultrasound flow transducer using a Transonic flowmeter (T206, Transonic Systems, Ithaca, N.Y.). Two indices were used to describe the regadenoson-induced coronary vasodilation: 1) the maximum increase in CBF and 2) the duration of the 2-fold increase in CBF (the period of time that CBF was elevated to a level ≧2-fold of baseline CBF). All pressure and flow data were acquired and analyzed using a Ponemah System (Version 3.30 or 4.20, LDS Test and Measurement, Valley View, Ohio). MAP and HR were calculated from phasic blood pressure, and LV dP/dtMax was calculated from the left ventricular systolic pressure.
On the day of an experiment, a dog was placed on a table, where it lay quietly during the experiment. A catheter was inserted into a peripheral vein in the leg and attached to an infusion line to administer drugs without disturbing the dog. The experiment was begun after MAP, HR and CBF were stable.
(§1) Each dog received an IV injection of 5 μg/kg of regadenoson. […] LVSP, LV dP/dtMax, MAP, HR and CBF were recorded continuously. Blood samples were taken from the left atrial catheter at 1, 3, 5, 15, 30, 45 and 60 min following injections of regadenoson.
In 4 dogs, two doses of regadenoson (5 μg/kg, IV) were given 90 min apart (without blood sampling) to determine if there is tachyphylaxis of regadenoson-induced coronary vasodilation.
The statistical significance of a difference between the value of a parameter at baseline and at the indicated time point after drug administration was determined using a One-Way Repeated Measures ANOVA followed by Tukey's Test. […] Results with p<0.05 were considered to be significant. […] All data are presented as Mean±SEM.

[1] = Plasma regadenoson concentrations in conscious dogs; assay type: in vivo, dog
Procedure: as §1

[2] = regadenoson 5 μg/kg IV in the presence of caffeine 1 mg/kg
[3] = regadenoson 5 μg/kg IV in the presence of caffeine 2 mg/kg
[4] = regadenoson 5 μg/kg IV in the presence of caffeine 4 mg/kg
[5] = regadenoson 5 μg/kg IV in the presence of caffeine 10 mg/kg
[6] = regadenoson 5 μg/kg IV without caffeine (control of caffeine 1 mg/kg group), 0.5 min
[7] = regadenoson 5 μg/kg IV without caffeine (control of caffeine 1 mg/kg group), 1 min
[8] = regadenoson 5 μg/kg IV without caffeine (control of caffeine 1 mg/kg group), 2 min
[9] = regadenoson 5 μg/kg IV without caffeine (control of caffeine 1 mg/kg group), 3 min
[10] = regadenoson 5 μg/kg IV without caffeine (control of caffeine 1 mg/kg group), 4 min
[11] = regadenoson 5 μg/kg IV without caffeine (control of caffeine 1 mg/kg group), 5 min
[12] = regadenoson 5 μg/kg IV without caffeine (control of caffeine 1 mg/kg group), 10 min
[13] = regadenoson 5 μg/kg IV without caffeine (control of caffeine 1 mg/kg group), 15 min
[14] = regadenoson 5 μg/kg IV without caffeine (control of caffeine 1 mg/kg group), 20 min
[15] = regadenoson 5 μg/kg IV without caffeine (control of caffeine 2 mg/kg group), 0.5 min
[16] = regadenoson 5 μg/kg IV without caffeine (control of caffeine 2 mg/kg group), 1 min
[17] = regadenoson 5 μg/kg IV without caffeine (control of caffeine 2 mg/kg group), 2 min
[18] = regadenoson 5 μg/kg IV without caffeine (control of caffeine 2 mg/kg group), 3 min
[19] = regadenoson 5 μg/kg IV without caffeine (control of caffeine 2 mg/kg group), 4 min
[20] = regadenoson 5 μg/kg IV without caffeine (control of caffeine 2 mg/kg group), 5 min
[21] = regadenoson 5 μg/kg IV without caffeine (control of caffeine 2 mg/kg group), 10 min
[22] = regadenoson 5 μg/kg IV without caffeine (control of caffeine 2 mg/kg group), 15 min
[23] = regadenoson 5 μg/kg IV without caffeine (control of caffeine 2 mg/kg group), 20 min
[24] = regadenoson 5 μg/kg IV without caffeine (control of caffeine 4 mg/kg group), 0.5 min
[25] = regadenoson 5 μg/kg IV without caffeine (control of caffeine 4 mg/kg group), 1 min
[26] = regadenoson 5 μg/kg IV without caffeine (control of caffeine 4 mg/kg group), 2 min
[27] = regadenoson 5 μg/kg IV without caffeine (control of caffeine 4 mg/kg group), 3 min
[28] = regadenoson 5 μg/kg IV without caffeine (control of caffeine 4 mg/kg group), 4 min
[29] = regadenoson 5 μg/kg IV without caffeine (control of caffeine 4 mg/kg group), 5 min
[30] = regadenoson 5 μg/kg IV without caffeine (control of caffeine 4 mg/kg group), 10 min
[31] = regadenoson 5 μg/kg IV without caffeine (control of caffeine 4 mg/kg group), 15 min
[32] = regadenoson 5 μg/kg IV without caffeine (control of caffeine 4 mg/kg group), 20 min
[33] = regadenoson 5 μg/kg IV without caffeine (control of caffeine 10 mg/kg group), 0.5 min
[34] = regadenoson 5 μg/kg IV without caffeine (control of caffeine 10 mg/kg group), 1 min
[35] = regadenoson 5 μg/kg IV without caffeine (control of caffeine 10 mg/kg group), 2 min
[36] = regadenoson 5 μg/kg IV without caffeine (control of caffeine 10 mg/kg group), 3 min
[37] = regadenoson 5 μg/kg IV without caffeine (control of caffeine 10 mg/kg group), 4 min
[38] = regadenoson 5 μg/kg IV without caffeine (control of caffeine 10 mg/kg group), 5 min
[39] = regadenoson 5 μg/kg IV without caffeine (control of caffeine 10 mg/kg group), 10 min
[40] = regadenoson 5 μg/kg IV without caffeine (control of caffeine 10 mg/kg group), 15 min
[41] = regadenoson 5 μg/kg IV without caffeine (control of caffeine 10 mg/kg group), 20 min
[42] = regadenoson 5 μg/kg IV, absence of caffeine
[43] = regadenoson 5 μg/kg IV, absence of caffeine, n=8
[44] = regadenoson 5 μg/kg IV, absence of caffeine, n=9
[45] = first injection of regadenoson 5 μg/kg IV
[46] = second injection of regadenoson 5 μg/kg IV 90 min later

## CNC(=O)c1cnn(-c2nc(N)c3ncn([C@@H]4O[C@H](CO)[C@@H](O)[C@H]4O)c3n2)c1 [Regadenoson, (1-{9-[(4S,2R,3R,5R)-3,4-dihydroxy-5-(hydroxymethyl)oxolan-2-yl]-6-aminopurin-2-yl}pyrazol-4-yl)-N-methylcarboxamide]
Conscious dogs; in the presence of 1, 2 and 4 mg/kg caffeine
  time regadenoson-increased CBF remained at ≧2-fold baseline levels: ≥ 3 min
Conscious dogs; [2]
  decrease in LVSP from baseline: 9±3%
  peak decrease in MAP from baseline: 13±2%
Conscious dogs; [3]
  decrease in LVSP from baseline: 6±2%
  peak decrease in MAP from baseline: 13±1%
Conscious dogs; [4]
  decrease in LVSP from control (p>0.05): 1±5%
  peak decrease in MAP from baseline: 2±5%
Conscious dogs; [5]
  increase in LVSP from control: 11±7%
  increase in MAP from baseline (insignificant): 9±6%
Conscious dogs; regadenoson 5 μg/kg IV with caffeine 1 mg/kg
  peak increase in HR from baseline: 124±12%
Conscious dogs; regadenoson 5 μg/kg IV with caffeine 2 mg/kg
  peak increase in HR from baseline: 109±21%
Conscious dogs; regadenoson 5 μg/kg IV with caffeine 4 mg/kg
  peak increase in HR from baseline: 79±20%
Conscious dogs; regadenoson 5 μg/kg IV with caffeine 10 mg/kg
  peak increase in HR from baseline: 74±16%
Conscious dogs; [6]
  HR: 138 ± 10 bpm
  MAP: 97 ± 2 mm Hg
Conscious dogs; [7]
  HR: 144 ± 13 bpm
  MAP: 93 ± 3 mm Hg
Conscious dogs; [8]
  HR: 142 ± 9 bpm
  MAP: 92 ± 4 mm Hg
Conscious dogs; [9]
  HR: 131 ± 9 bpm
  MAP: 92 ± 3 mm Hg
Conscious dogs; [10]
  HR: 125 ± 8 bpm
  MAP: 94 ± 3 mm Hg
Conscious dogs; [11]
  HR: 121 ± 8 bpm
  MAP: 96 ± 3 mm Hg
Conscious dogs; [12]
  HR: 100 ± 7 bpm
  MAP: 97 ± 4 mm Hg
Conscious dogs; [13]
  HR: 94 ± 7 bpm
  MAP: 96 ± 4 mm Hg
Conscious dogs; [14]
  HR: 89 ± 7 bpm
  MAP: 96 ± 3 mm Hg
Conscious dogs; [15]
  HR: 160 ± 13 bpm
  MAP: 89 ± 5 mm Hg
Conscious dogs; [16]
  HR: 145 ± 7 bpm
  MAP: 89 ± 5 mm Hg
Conscious dogs; [17]
  HR: 150 ± 4 bpm
  MAP: 91 ± 5 mm Hg
Conscious dogs; [18]
  HR: 137 ± 5 bpm
  MAP: 91 ± 3 mm Hg
Conscious dogs; [19]
  HR: 127 ± 4 bpm
  MAP: 93 ± 4 mm Hg
Conscious dogs; [20]
  HR: 129 ± 6 bpm
  MAP: 90 ± 3 mm Hg
Conscious dogs; [21]
  HR: 104 ± 5 bpm
  MAP: 91 ± 2 mm Hg
Conscious dogs; [22]
  HR: 104 ± 6 bpm
  MAP: 96 ± 3 mm Hg
Conscious dogs; [23]
  HR: 93 ± 7 bpm
  MAP: 97 ± 3 mm Hg
Conscious dogs; [24]
  HR: 166 ± 18 bpm
  MAP: 107 ± 6 mm Hg
Conscious dogs; [25]
  HR: 163 ± 8 bpm
  MAP: 95 ± 5 mm Hg
Conscious dogs; [26]
  HR: 158 ± 6 bpm
  MAP: 99 ± 4 mm Hg
Conscious dogs; [27]
  HR: 141 ± 4 bpm
  MAP: 98 ± 4 mm Hg
Conscious dogs; [28]
  HR: 131 ± 6 bpm
  MAP: 100 ± 2 mm Hg
Conscious dogs; [29]
  HR: 128 ± 7 bpm
  MAP: 100 ± 2 mm Hg
Conscious dogs; [30]
  HR: 113 ± 5 bpm
  MAP: 100 ± 2 mm Hg
Conscious dogs; [31]
  HR: 102 ± 6 bpm
  MAP: 101 ± 4 mm Hg
Conscious dogs; [32]
  HR: 101 ± 6 bpm
  MAP: 102 ± 4 mm Hg
Conscious dogs; [33]
  HR: 149 ± 15 bpm
  MAP: 93 ± 3 mm Hg
Conscious dogs; [34]
  HR: 144 ± 7 bpm
  MAP: 86 ± 4 mm Hg
Conscious dogs; [35]
  HR: 148 ± 5 bpm
  MAP: 89 ± 4 mm Hg
Conscious dogs; [36]
  HR: 135 ± 4 bpm
  MAP: 89 ± 4 mm Hg
Conscious dogs; [37]
  HR: 130 ± 5 bpm
  MAP: 92 ± 4 mm Hg
Conscious dogs; [38]
  HR: 127 ± 6 bpm
  MAP: 92 ± 4 mm Hg
Conscious dogs; [39]
  HR: 105 ± 4 bpm
  MAP: 95 ± 4 mm Hg
Conscious dogs; [40]
  HR: 98 ± 3 bpm
  MAP: 93 ± 6 mm Hg
Conscious dogs; [41]
  HR: 99 ± 7 bpm
  MAP: 98 ± 5 mm Hg
Conscious dogs; [42]
  peak increase in LV dP/dtMax from baseline: 65±7%
Conscious dogs; [43]
  duration of the 2-fold increase in CBF: 515 ± 71 s
  peak CBF: 191 ± 7 mL/min
  peak decrease in LVSP from baseline: 9±1%
Conscious dogs; [44]
  peak decrease in MAP from baseline: 15±2%
  peak increase in HR from baseline: 114±14%
Conscious dogs; [45]
  duration of 2-fold increase in CBF: 401 ± 45 s
  maximum CBF: 178 ± 17 mL/min
Conscious dogs; [46]
  duration of 2-fold increase in CBF: 395 ± 43 s
  maximum CBF: 176 ± 6 mL/min
Conscious dogs; two injections of regadenoson 5 μg/kg IV 90 min apart
  differences in baseline CBF, maximum CBF or duration of 2-fold increase in CBF between two injections (tachyphylaxis): no statistically significant differences
[1]; caffeine at 1, 2, 4 or 10 mg/kg
  pharmacokinetic profiles of regadenoson in presence of caffeine: not changed
[1]; [42]
  time of peak plasma regadenoson concentration: ~1 min
